Reference: ChEMBL document CHEMBL1201862, “PubChem BioAssay data set” (2004)
Activity calls are given as the source filed them.

Tests used:
[1] = target: T1, Coagulation factor XII (Homo sapiens, UniProt P00748); experiment: activated coagulation factor XII inhibitor potency, concentration-effect curve, cell-free (AID 716); assay type: functional
T1 sequence (P00748 whole entry): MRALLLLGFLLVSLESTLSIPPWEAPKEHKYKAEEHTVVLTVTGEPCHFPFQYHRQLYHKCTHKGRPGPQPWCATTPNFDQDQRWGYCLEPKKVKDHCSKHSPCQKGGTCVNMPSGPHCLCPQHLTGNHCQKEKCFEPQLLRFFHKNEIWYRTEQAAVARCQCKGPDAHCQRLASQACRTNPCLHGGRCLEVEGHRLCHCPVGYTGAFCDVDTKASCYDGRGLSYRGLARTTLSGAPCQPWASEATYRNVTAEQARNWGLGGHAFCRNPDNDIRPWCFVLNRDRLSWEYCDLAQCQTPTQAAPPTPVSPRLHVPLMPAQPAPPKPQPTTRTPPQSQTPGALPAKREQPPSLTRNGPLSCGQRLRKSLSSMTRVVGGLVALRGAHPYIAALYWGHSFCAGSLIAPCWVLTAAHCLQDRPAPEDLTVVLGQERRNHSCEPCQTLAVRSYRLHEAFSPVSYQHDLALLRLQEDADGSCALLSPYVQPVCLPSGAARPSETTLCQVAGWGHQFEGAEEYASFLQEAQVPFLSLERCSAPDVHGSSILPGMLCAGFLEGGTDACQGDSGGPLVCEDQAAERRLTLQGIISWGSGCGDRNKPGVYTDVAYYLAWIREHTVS

[2] = target: Hexokinase (Trypanosoma brucei, UniProt Q38C41); experiment: Confirmation assay for inhibitors of Trypanosoma brucei hexokinase 1-Analogue-first series. [Related pubchem assays (depositor defined):AID1430, AID1632, AID2516, AID2560, AID2579, AID2600, AID449725, AID492951]; assay type: functional
[3] = target: T2, Kappa-type opioid receptor (Homo sapiens, UniProt P41145); experiment: SAR analysis of small molecule antagonists of the kappa opioid receptor via a luminescent beta-arrestin assay - Set 3. [Related pubchem assays (depositor defined):AID1777, AID1778, AID1785, AID1786, AID1966, AID2133, AID2136, AID2285, AID2495]; assay type: functional
[4] = target: T2, Kappa-type opioid receptor; experiment: SAR analysis of Antagonists of the Kappa Opioid Receptor (KOR) using an Image-Based Assay - Set 3. [Related pubchem assays (depositor defined):AID1777, AID1785]; assay type: functional
[5] = target: Delta-type opioid receptor (Homo sapiens, UniProt P41143); experiment: SAR Analysis of Antagonists of the DOR Receptor using an Image-Based Assay - Set 3. [Related pubchem assays (depositor defined):AID1777, AID1785]; assay type: functional;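 also: U2OS cells expressing DOR1 and beta-arrestin GFP stimulated with 100 nM SNC80; imaging of GFP-tagged beta-arrestin moving into spots after receptor activation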
[6] = target: Mu-type opioid receptor (Homo sapiens, UniProt P35372); experiment: SAR Analysis of Antagonists of the MOR Receptor using an Image-Based Assay - Set 3. [Related pubchem assays (depositor defined):AID1777, AID1785, AID1786, AID1966, AID2133, AID2136, AID2284, AID2285, AID2420]; assay type: functional
[7] = tested on: HEK293; experiment: cells; assay type: functional, cell-based; conditions: Homo sapiens
[8] = target: Nucleotide-binding oligomerization domain-containing protein 2 (Homo sapiens, UniProt Q9HC29); experiment: inhibition of NOD2-driven NF-kB reporter – cell-based, luminescence, uHTS, HEK293 (AID 1566); assay type: functional
[9] = tested on: HEK293; experiment: NOD2 signaling inhibitors in MDP-stimulated cells, cell-based, uHTS, luminescence (AID 2001); assay type: functional; conditions: Homo sapiens
[10] = tested on: HEK293; experiment: cells; assay type: functional, cell-based; conditions: Homo sapiens; remark: listed apart in the source
[11] = target: Major prion protein (Homo sapiens, UniProt P04156); assay type: functional, cell-based
[12] = tested on: HEK293; experiment: cells; assay type: functional, cell-based; conditions: Homo sapiens; remark: listed apart in the source
[13] = tested on: HEK293; experiment: inhibition of NOD1-driven NF-kB reporter – cell-based, luminescence, uHTS, primary screen (AID 1578); assay type: functional; conditions: Homo sapiens
[14] = cells

Compound: CC(C)CCn1c(=S)[nH]c2ncccc2c1=O
- IC50 [1]: > 50 µM (inactive)

Compound: COc1ccccc1-n1sc2ccccc2c1=O
- IC50 [2]: 7.9 µM (active)

Compound: Cc1cccc(S(=O)(=O)NCc2ccc(C(=O)NCCN(Cc3ccccc3)Cc3ccccc3)cc2)c1
- IC50 [3]: > 20 µM (inactive)
- IC50 [4]: > 32 µM (inactive)
- IC50 [5]: > 32 µM (inactive)
- IC50 [6]: > 32 µM (inactive)

Compound: Cc1nc2c(Br)cc(Br)cc2cc1O
- IC50 [7]: > 20 µM (inactive)
- EC50 [8]: 13.2 µM (active)
- IC50 [9]: 6.68 µM (active)
- IC50 [10]: 6.3 µM (active)
- IC50 [11]: 1.36 µM (active)
- IC50 [12]: > 20 µM (inactive)
- EC50 [13]: 11.4 µM (active)
- IC50 [14]: > 138 µM (inactive)
